In patent US20060018827A1, “Positron therapy of inflammation, infection and disease” (priority 2004, published 2006):

Tests used:
[1] = test system: mammary tumors in PyMT mice; assay: Treatment of PyMT mice with ^18F-FDG (toleration, apoptosis and necrosis detection); type: in vivo, mouse
Method: (§1) Animals. All procedures involving mice were conducted in accordance with the National Institutes of Health regulations concerning the use and care of experimental animals. The study of mice was approved by the Albert Einstein College of Medicine (AECOM) Animal Use Committee. Transgenic mice expressing the polyoma middle T antigen (PyMT) in the mammary epithelium under the control of mouse mammary tumor virus (MMTV) long terminal repeat were provided by Dr. W. J. Muller (McMaster University, Ontario, Canada) and then bred at AECOM. At the age of 10 weeks these mice have multiple mammary tumors 0.15-0.17 cm in diameter. In mice older than 18 weeks the tumors are more than 1 cm in diameter. MMTV-NeuT mice (Muller et al. 1988), which carry erbB-2 (Neu), one of the better known human breast cancer oncogenes, were purchased from Jackson Laboratories. MMTV-NeuT mice were obtained as retired breeders and some of them developed mammary tumors at the age of 5 months, whereas others remained-tumor free until 6-7 months of age. C3H/B6 female mice lacking the PyMT transgene were used as healthy controls in therapy experiments. Notch tumor-bearing mice were produced by subcutaneously injecting six to eight week old female nude mice with 105 Notch cells on their right flank. One week after implantation the tumors reached 0.5-0.7 cm in diameter and therapy with FDG was initiated.
Treatment of PyMT mice with ^18F-FDG. After a 4-hour fast, three groups of mice were treated i.p. with the following doses of ^18F-FDG: group 1 (five 10-week-old mice), 2-4 mCi; group 2 (three 22-week-old mice), 2 mCi; group 3 (two C3H/B6 mice), 3 mCi to assess radiation damage to healthy breast tissue. Three 10-week-old and two 22-week-old PyMT mice served as untreated controls. At 10 days after treatment, mice were killed. In younger mice, the right abdominal mammary glands were removed for whole mount preparation as described (Gouon-Evans et al., 2000), then fixed in buffered formalin and sectioned. In older mice, the tumors were removed and processed as above. Some sections were stained with H&E; others were analyzed for the presence of apoptotic and necrotic cells.
Apoptosis and necrosis detection. The detection of apoptotic and necrotic cells in the tumors was performed with an Apoptag® Plus apoptosis detection kit (Serologicals) in accordance with the manufacturer's instructions. In brief, 3′-OH termini of DNA fragments, which are the hallmark of apoptosis, were labeled with digoxigenin-modified nucleotides by terminal deoxynucleotidyl transferase. This enzyme selectively detects apoptotic over necrotic cells. The labeled DNA was detected with an anti-digoxigenin antibody, and detection was performed with a chromagen: apoptotic cells were stained brown, and areas of necrosis were stained yellow.

[2] = test system: mammary tumors of MMTV-neuT mice; assay: PET imaging of MMTV-neuT mice with ^18F-FDG; type: in vivo, mouse; conditions: PET 1 hour after i.p. 0.5-2.0 mCi
Method: as §1, with “Notch tumor-bearing mice were produced by subcutaneously injecting six to eight week old female nude mice with 105 Notch cells on their right flank. One week after implantation the tumors reached 0.5-0.7 cm in diameter and therapy with FDG was initiated.” left out
(§2) Imaging of mice with ^18F-FDG. […] The tumor to liver ratios (TLRs) were calculated by the formula TLR=counts per pixel in tumor divided by counts per pixel in liver.

metastatic breast cancer = assay: ^18F-FDG-PET in breast cancer patients with metastatic disease; type: in vivo, human
Method: (§3) ^18F-FDG-PET in breast cancer patients with metastatic disease. Approval was obtained from the Albert Einstein College of Medicine Cancer Center Protocol Review Committee and the Montefiore Medical Center Institutional Review Board. Retrospectively, five consecutive patients with breast cancer and metastatic disease shown on ^18F-FDG-PET scanning were evaluated. After more than 4 hours of fasting, the patients were administered 3.5 mCi of ^18F-FDG, and rested during an uptake period of 45 minutes. The patients then underwent a whole-body scan on the CPET scanner. The scanning protocol consisted of 6 minutes of emission and two rotations of a ^137Cs source for transmission per bed position, and approximately six bed positions. Images were corrected for attenuation and reconstructed with the iterative method. To reduce volume averaging, a small round region of interest 12 pixels in size was drawn in the center of the tumor and in the center of normal liver. The diameter of the region was 14 mm. Standardized uptake values (SUVs) were calculated for all regions of interest by the formula SUV=(activity in tissue [mCi/g]) divided by (injected activity [mCi]/body weight [g]). The tumor to liver ratios (TLRS) were calculated by the formula TLR=SUV of tumor divided by SUV of liver.

[3] = test system: mammary tumors of PyMT mice; assay: PET imaging of PyMT mice with ^18F-FDG; type: in vivo, mouse; conditions: PET 1 hour after i.p. 0.5-2.0 mCi
Method: as §1, with “Notch tumor-bearing mice were produced by subcutaneously injecting six to eight week old female nude mice with 105 Notch cells on their right flank. One week after implantation the tumors reached 0.5-0.7 cm in diameter and therapy with FDG was initiated.” left out
as §2

metastatic cancers = assay: FDG-PET SUVmax in patients with different types of metastatic cancer; type: in vivo, human
Method: as §3
Human Tumor Dosimetry. For each patient, the tumor with the highest SUVmax was used, and corresponding calculated tumor dose (TD) for metastatic cancers are shown in Columns 4 and 5 in Table 3. Tumor dose is calculated by the formulae: D(cGy)=100*SUV, for a dose of 5 Ci HD ^18F-FDG; and D(cGy)=150*SUV, for a dose of 7.5 Ci HD ^18F-FDG.

[4] = Patient 1, metastasis to sub-carinal lymph node, 3.5 mCi
[5] = Patient 2, metastasis to the left axilla, 3.5 mCi
[6] = Patient 4, metastasis to the right axilla, 3.5 mCi

SMILES: O=C[C@H]([18F])[C@@H](O)[C@H](O)[C@H](O)CO [^18F-FDG, ^18F-2-deoxy-2-fluoro-D-glucose]
- apoptotic cells in treated small tumors ([1]; 10-week-old PyMT mice, tumors 0.15-0.17 cm, 2-4 mCi i.p., 10 days after treatment): 4±1%
- necrotic areas, share of tumor volume ([1]; 22-week-old PyMT mice, tumors more than 1 cm, 2 mCi i.p., 10 days after treatment): 14%
- apoptosis or necrosis in healthy mammary glands ([1]; C3H/B6 mice, 3 mCi i.p.): No apoptosis or necrosis was detected
- changes in eating and drinking habits, urine and fecal excretion, or body weight ([1]; PyMT mice, 2-4 mCi i.p., observed for 10 days): No changes
- radioactivity detected in mice ([1]; PyMT mice, 24 hours after injection): no radioactivity was detected
- tumor to liver ratio (TLR), mean±SD [2]: 1.6±0.4
- SUV Metastasis (metastatic breast cancer; [4]): 5.3
- TLR (metastatic breast cancer; [4]): 1.89
- SUV Normal liver (metastatic breast cancer; Patient 1, 3.5 mCi): 2.8
- SUV Metastasis (metastatic breast cancer; [5]): 7.4
- TLR (metastatic breast cancer; [5]): 3.36
- SUV Normal liver (metastatic breast cancer; Patient 2, 3.5 mCi): 2.3
- SUV Metastasis (metastatic breast cancer; Patient 3, liver metastasis (10 cm×6 cm×4.5 cm), 3.5 mCi): 5.8
- TLR (metastatic breast cancer; Patient 3, liver metastasis, 3.5 mCi): 2.23
- lowest SUV (metastatic breast cancer; Patient 3, tumor with a diameter of 2 cm): 3.8
- SUV Normal liver (metastatic breast cancer; Patient 3, 3.5 mCi): 2.6
- SUV Metastasis (metastatic breast cancer; [6]): 5.3
- TLR (metastatic breast cancer; [6]): 2.52
- SUV Normal liver (metastatic breast cancer; Patient 4, 3.5 mCi): 2.1
- SUV Metastasis (metastatic breast cancer; Patient 5, right lung metastasis (most intense, diameter 5 cm), 3.5 mCi): 9.9
- TLR (metastatic breast cancer; Patient 5, right lung metastasis, 3.5 mCi): 3.67
- least intense SUV (metastatic breast cancer; Patient 5, tumor with a diameter of 1.5 cm): 2.9
- SUV Normal liver (metastatic breast cancer; Patient 5, 3.5 mCi): 2.7
- average TLR (metastatic breast cancer; five patients with metastatic breast cancer, 3.5 mCi): 2.7±0.8
- tumor to liver ratio (TLR), mean±SD [3]: 1.6±0.1
- SUVmax Median (metastatic cancers; metastatic Anaplastic Thyroid cancer, 3 patients): 17.4
- SUVmax Median (metastatic cancers; metastatic Breast cancer, 10 patients): 7.2
- SUVmax Median (metastatic cancers; metastatic Cervical cancer, 4 patients): 7.0
- SUVmax Median (metastatic cancers; metastatic Esophageal cancer, 5 patients): 11.1
- SUVmax Median (metastatic cancers; metastatic Head & Neck cancer, 9 patients): 6.6
- SUVmax Median (metastatic cancers; metastatic Lung cancer, 10 patients): 5.9
- SUVmax Median (metastatic cancers; metastatic Lymphoma, 9 patients): 5.6
- SUVmax Median (metastatic cancers; metastatic Melanoma, 7 patients): 9.0
- SUVmax Median (metastatic cancers; metastatic Ovarian cancer, 9 patients): 5.3
- maximum SUV (metastatic cancers; patient with metastatic esophageal cancer, abdominal metastasis): 33
- maximum SUV (metastatic cancers; patient with metastatic non-small cell lung cancer, right mediastinum): 14.8
